Read-outs that look alike come from different tables or passages of the source.

Results on one compound are retold here after US7772183B2 (Bristol-Myers Squibb Company, priority 2005, dated 2010).

Experiment [1] has as its target T1, porcine pancreatic elastase (PPE) (Sus scrofa, UniProt P00772).
T1 construct: purchased Sigma or EMDbiosciences
Description: Specificity assay, pancreatic elastase. In kind it is biochemical. The note with it: read-out: PPE activity in the specificity assays. As to the method: The specificities of compounds of the present disclosure were determined against a variety of serine proteases: human neutrophil elastase (HNE), porcine pancreatic elastase (PPE) and human pancreatic chymotrypsin and one cysteine protease: human liver cathepsin B. In all cases, a 96-well plate format protocol using colorimetric p-nitroaniline (pNA) substrate or fluorometric Amino-Methyl-Coumarin (AMC) substrate, specific for each enzyme was used as described previously (PCT Patent Application No. WO 00/09543) with some modifications. All enzymes were purchased from Sigma or EMDbiosciences while the substrates were from Bachem.
Each pNA assay included a 2 h enzyme-inhibitor pre-incubation at room temperature followed by addition of substrate and hydrolysis to ˜15% conversion as measured on a Spectramax Pro microplate reader. The cathepsin B assay was initiated by adding substrate to a 10 min enzyme-inhibitor pre-incubation at room temperature, and the assay plate measured immediately using the Cytofluor Series 4000. Compound concentrations varied from 100 to 0.4 μM depending on their potency.
The final conditions for each assay were as follows: […]
The percentage of inhibition was calculated using the formula: [1−((UVinh−UVblank)/(UVctl−UVblank))]×100 […]

For experiment [2], the system named is HCV replicon in HUH-7 cells. Description: HCV replicon FRET assay. In kind it is cell-based, Hepatitis C virus (strain 1b). The note with it: Hepatitis C virus. An outline of the steps: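 HUH-7 cells stably carrying a genotype 1b subgenomic HCV replicon (NS3–NS5B) treated with compound for 4 days at 37° C, 0.5% DMSO final. Cytotoxicity (CC50) read by alamar Blue; cells then lysed with 10 μM FRET HCV protease peptide substrate and kinetically read (340/490 nm) for EC50.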

The test system of experiment [3] is HCV replicon (Renilla luciferase reporter) in HUH-7 cells. Description: HCV replicon luciferase reporter assay. It is filed as cell-based, Hepatitis C virus (strain 1b). The note with it: Huh-7, 96 h, 4 days. The source says: An HCV replicon whole cell system was established as described by Lohmann V, Komer F, Koch J, Herian U, Theilmann L, Bartenschlager R., Science 285(5424):110-3 (1999). This system enabled us to evaluate the effects of our HCV Protease compounds on HCV RNA replication. Briefly, using the HCV strain 1b sequence described in the Lohmann paper (Assession number: AJ238799), an HCV cDNA was synthesized by Operon Technologies, Inc. (Alameda, Calif.), and the full-length replicon was then assembled in plasmid pGem9zf(+) (Promega, Madison, Wis.) using standard molecular biology techniques. The replicon consists of (i) the HCV 5′ UTR fused to the first 12 amino acids of the capsid protein, (ii) the neomycin phosphotransferase gene (neo), (iii) the IRES from encephalomyocarditis virus (EMCV), and (iv) HCV NS3 to NS5B genes and the HCV 3′ UTR. […]
As a secondary assay, EC50 determinations from the replicon FRET assay were confirmed in a replicon luciferase reporter assay. […] Following 4 days in a 37° C./5% CO2 incubator, cells were analyzed for Renilla Luciferase activity using the Promega Dual-Glo Luciferase Assay System. […] Plates were read on a Packard TopCount NXT using a luminescence program.
The percentage inhibition was calculated using the formula below: […]
The values were graphed and analyzed using XLfit to obtain the EC50 value.

T1 sequence (P00772 27-266): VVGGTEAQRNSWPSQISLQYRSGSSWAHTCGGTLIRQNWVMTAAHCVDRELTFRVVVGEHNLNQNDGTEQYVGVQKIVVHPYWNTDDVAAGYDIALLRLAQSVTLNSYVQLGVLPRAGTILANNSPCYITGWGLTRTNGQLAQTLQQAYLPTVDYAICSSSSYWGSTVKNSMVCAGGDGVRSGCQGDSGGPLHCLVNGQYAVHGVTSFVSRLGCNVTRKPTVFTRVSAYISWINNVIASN

Take `CC(C)(C)OC(=O)N[C@H]1CCCCC/C=C\[C@@H]2C[C@@]2(C(=O)NS(=O)(=O)C2CC2)NC(=O)[C@@H]2C[C@@H](OC(=O)c3ccc(C#N)cc3)CN2C1=O` [Compound 26, 18-(4-cyanobenzoyloxy)-14-tert-butoxycarbonylamino-4-cyclopropylsulfonylaminocarbonyl-2,15-dioxo-3,16-diazatricyclo-[14.3.0.0^4,6]-nonadec-7-ene]: in experiment [1], the IC50 was more than 100000 nM. Further, the concentration giving a half-maximal response (EC50) was 7.3 nM in experiment [2] (96 h, HUH-7 replicon cells, 4 days, read-out: EC50 in the replicon FRET assay); less than 100 nM in experiment [2] (Huh-7, HCV replicon, for compounds tested, read-out: EC50 Range); 4.3 nM in experiment [3].
